{
  "source": "paper PMC3445516",
  "about": "(PLoS ONE, 2012)",
  "assay_in_all_cases": "Ambit kinase profiling, competition binding",
  "key": {"MAP4K4": {"biological_target": "T1, MAP4K4 (Homo sapiens, UniProt O95819)", "T1 construct": "purchased Ambit Biosciences (KINOMEscan)", "procedure": "(§1) Also included in the kinase profile are four isoforms of PKC (δ, ε, η, θ) and eight isoforms of CAMKs (CAMKIα, δ, γ; CAMKIIα, β, δ, γ; CAMK4).\n(§2) The global kinase profiling experiment was performed by Ambit Biosciences."}, "MRCKB": {"biological_target": "T2, MRCKB (Homo sapiens, UniProt Q9Y5S2)", "T2 construct": "purchased Ambit Biosciences (KINOMEscan)", "procedure": "as §1, §2"}, "YANK3": {"biological_target": "T3, YANK3 (Homo sapiens, UniProt Q86UX6)", "T3 construct": "purchased Ambit Biosciences (KINOMEscan)", "procedure": "as §1, §2"}, "MEK6": {"biological_target": "T4, MEK6 (Homo sapiens, UniProt P52564)", "T4 construct": "purchased Ambit Biosciences (KINOMEscan)", "T4 sequence (P52564 1-334)": "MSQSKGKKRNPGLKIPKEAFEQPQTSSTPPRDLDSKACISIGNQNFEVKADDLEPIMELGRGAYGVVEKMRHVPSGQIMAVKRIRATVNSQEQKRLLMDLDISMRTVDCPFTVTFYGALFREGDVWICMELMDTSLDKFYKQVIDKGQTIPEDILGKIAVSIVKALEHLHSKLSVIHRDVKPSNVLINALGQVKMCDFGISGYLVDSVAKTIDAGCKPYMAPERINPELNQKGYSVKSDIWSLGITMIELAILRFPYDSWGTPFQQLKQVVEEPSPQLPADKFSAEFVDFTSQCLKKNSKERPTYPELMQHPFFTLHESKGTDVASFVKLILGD", "procedure": "as §1, §2"}, "EGFR(G719S)": {"biological_target": "T5, EGFR(G719S) (Homo sapiens, UniProt P00533, G719S)", "T5 construct": "purchased Ambit Biosciences (KINOMEscan)", "details": "for % Competition: 10 µM", "procedure": "as §1, §2"}, "CSK": {"biological_target": "T6, CSK (Homo sapiens, UniProt P41240)", "T6 construct": "purchased Ambit Biosciences (KINOMEscan)", "T6 sequence (P41240 whole entry)": "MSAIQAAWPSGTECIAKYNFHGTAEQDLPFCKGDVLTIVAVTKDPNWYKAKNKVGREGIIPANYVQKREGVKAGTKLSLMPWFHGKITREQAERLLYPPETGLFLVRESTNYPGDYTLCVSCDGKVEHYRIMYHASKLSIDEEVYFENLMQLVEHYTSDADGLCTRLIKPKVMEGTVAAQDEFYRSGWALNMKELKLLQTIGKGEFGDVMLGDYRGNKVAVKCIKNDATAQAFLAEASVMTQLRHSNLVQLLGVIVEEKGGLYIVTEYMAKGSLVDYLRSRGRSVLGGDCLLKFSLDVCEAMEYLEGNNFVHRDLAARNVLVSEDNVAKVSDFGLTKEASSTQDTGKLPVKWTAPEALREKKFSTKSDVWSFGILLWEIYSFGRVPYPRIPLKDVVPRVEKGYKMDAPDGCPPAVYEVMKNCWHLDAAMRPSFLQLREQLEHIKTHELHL", "details": "for % Competition: 10 µM", "procedure": "as §1, §2"}, "EPHA6": {"biological_target": "T7, EPHA6 (Homo sapiens, UniProt Q9UF33)", "T7 construct": "purchased Ambit Biosciences (KINOMEscan)", "T7 sequence (Q9UF33 23-1036)": "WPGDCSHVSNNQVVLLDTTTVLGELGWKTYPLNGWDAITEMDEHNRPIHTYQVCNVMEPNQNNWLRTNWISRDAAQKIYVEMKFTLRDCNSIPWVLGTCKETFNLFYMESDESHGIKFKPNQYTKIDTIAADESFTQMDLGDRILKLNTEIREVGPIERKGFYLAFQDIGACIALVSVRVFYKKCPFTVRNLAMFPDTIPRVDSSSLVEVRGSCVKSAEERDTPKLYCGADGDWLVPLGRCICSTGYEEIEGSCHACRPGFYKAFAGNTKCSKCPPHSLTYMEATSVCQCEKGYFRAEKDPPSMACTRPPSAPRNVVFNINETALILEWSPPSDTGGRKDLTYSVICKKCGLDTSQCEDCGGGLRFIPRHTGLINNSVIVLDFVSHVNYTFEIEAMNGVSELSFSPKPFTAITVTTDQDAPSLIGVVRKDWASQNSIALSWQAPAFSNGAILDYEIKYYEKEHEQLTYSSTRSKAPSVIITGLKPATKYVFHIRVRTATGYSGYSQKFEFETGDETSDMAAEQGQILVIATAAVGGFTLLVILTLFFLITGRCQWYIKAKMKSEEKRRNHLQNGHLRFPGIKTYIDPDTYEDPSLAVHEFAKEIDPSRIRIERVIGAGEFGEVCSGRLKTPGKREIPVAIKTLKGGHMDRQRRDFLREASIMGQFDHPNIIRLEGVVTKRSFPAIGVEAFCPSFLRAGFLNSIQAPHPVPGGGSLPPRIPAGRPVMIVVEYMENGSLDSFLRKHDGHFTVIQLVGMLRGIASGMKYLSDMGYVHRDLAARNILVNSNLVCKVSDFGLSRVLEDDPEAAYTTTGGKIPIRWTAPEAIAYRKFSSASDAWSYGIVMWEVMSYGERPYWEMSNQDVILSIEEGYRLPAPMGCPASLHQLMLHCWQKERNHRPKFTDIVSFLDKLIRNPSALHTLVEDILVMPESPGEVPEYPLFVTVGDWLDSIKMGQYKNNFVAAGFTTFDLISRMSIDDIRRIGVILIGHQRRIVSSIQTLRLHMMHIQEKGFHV", "procedure": "as §1, §2"}, "SYK": {"biological_target": "T8, SYK (Homo sapiens, UniProt P43405)", "T8 construct": "purchased Ambit Biosciences (KINOMEscan)", "details": "for % Competition: 10 µM", "procedure": "as §1, §2"}, "TTK": {"biological_target": "T9, TTK (Homo sapiens, UniProt P33981)", "T9 construct": "purchased Ambit Biosciences (KINOMEscan)", "T9 sequence (P33981 1-857)": "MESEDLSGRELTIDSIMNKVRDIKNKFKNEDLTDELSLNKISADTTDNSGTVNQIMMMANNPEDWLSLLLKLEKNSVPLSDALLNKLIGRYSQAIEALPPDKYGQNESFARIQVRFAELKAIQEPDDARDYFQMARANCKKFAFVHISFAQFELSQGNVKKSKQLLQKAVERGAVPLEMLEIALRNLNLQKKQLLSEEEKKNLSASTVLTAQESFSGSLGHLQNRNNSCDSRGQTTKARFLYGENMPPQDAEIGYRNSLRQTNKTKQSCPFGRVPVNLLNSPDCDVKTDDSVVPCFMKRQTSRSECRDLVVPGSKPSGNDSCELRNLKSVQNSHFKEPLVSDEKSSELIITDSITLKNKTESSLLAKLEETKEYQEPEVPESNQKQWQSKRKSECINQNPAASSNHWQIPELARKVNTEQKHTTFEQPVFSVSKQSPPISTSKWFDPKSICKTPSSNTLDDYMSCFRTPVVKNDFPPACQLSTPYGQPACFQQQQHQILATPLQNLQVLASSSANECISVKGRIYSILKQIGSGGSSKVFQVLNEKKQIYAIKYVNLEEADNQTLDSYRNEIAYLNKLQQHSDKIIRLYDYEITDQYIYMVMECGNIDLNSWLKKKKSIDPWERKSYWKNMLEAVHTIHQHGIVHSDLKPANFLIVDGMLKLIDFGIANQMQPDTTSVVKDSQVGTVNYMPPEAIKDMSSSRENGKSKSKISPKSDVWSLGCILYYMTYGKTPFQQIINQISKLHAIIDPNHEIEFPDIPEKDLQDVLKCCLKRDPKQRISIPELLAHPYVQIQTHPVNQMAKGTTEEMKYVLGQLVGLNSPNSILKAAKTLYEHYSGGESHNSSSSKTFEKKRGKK", "procedure": "as §1, §2"}, "ERBB4": {"biological_target": "T10, ERBB4 (Homo sapiens, UniProt Q15303)", "T10 construct": "purchased Ambit Biosciences (KINOMEscan)", "T10 sequence (Q15303 26-1308)": "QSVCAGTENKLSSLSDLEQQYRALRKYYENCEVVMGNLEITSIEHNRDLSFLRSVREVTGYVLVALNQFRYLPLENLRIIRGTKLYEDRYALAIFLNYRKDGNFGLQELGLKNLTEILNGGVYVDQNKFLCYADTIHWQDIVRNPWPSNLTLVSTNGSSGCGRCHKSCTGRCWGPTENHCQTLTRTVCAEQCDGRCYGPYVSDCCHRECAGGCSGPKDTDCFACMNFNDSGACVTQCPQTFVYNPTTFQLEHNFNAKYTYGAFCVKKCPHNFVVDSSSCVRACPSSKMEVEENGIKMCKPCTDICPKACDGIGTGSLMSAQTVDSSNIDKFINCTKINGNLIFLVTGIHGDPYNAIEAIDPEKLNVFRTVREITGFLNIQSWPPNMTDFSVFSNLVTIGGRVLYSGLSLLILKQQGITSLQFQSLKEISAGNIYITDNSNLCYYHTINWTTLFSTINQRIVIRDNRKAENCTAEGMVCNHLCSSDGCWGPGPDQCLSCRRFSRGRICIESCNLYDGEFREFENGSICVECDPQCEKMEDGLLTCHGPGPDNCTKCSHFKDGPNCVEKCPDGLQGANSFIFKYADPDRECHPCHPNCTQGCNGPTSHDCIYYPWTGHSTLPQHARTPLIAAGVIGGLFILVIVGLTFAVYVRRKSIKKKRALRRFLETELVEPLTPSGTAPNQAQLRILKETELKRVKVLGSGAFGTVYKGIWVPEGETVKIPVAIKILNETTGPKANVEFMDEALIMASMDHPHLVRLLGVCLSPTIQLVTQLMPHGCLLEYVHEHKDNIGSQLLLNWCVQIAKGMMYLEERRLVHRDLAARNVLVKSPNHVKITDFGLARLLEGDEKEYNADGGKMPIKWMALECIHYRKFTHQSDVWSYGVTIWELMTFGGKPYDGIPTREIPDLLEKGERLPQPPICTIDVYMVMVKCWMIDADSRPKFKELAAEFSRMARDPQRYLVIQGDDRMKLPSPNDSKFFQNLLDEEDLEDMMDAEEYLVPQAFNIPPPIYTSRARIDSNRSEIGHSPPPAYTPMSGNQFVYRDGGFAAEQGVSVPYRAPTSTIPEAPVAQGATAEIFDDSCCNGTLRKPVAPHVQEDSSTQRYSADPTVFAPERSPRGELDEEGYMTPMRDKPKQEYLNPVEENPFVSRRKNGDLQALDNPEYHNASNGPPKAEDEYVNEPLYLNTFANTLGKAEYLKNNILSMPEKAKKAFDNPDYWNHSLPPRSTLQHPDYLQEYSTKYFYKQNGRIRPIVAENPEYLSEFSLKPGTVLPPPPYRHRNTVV", "procedure": "as §1, §2"}},
  "note": "Where two headings read alike, the source gives them in different places.",
  "data": [
    {"smiles": "Fc1ccc(-c2c(-c3ccncc3)[nH]c3nccnc23)cc1", "note": "[Compound 122]", "values": [
      {"measurement": "inhibition at 10 µM", "setting": "MAP4K4; MAP4K4, 10 µM, read-out: % Competition", "value": 84, "unit": "%"},
      {"measurement": "inhibition at 10 µM", "setting": "MRCKB; MRCKB, 10 µM, read-out: % Competition", "value": 98, "unit": "%"},
      {"measurement": "inhibition at 10 µM", "setting": "YANK3; YANK3, 10 µM, read-out: % Competition", "value": 67, "unit": "%"},
      {"measurement": "inhibition at 10 µM", "setting": "MEK6; MEK6, 10 µM, read-out: % Competition", "value": 66, "unit": "%"},
      {"measurement": "% Competition", "setting": "EGFR(G719S)", "value": 96, "unit": "%"},
      {"measurement": "% Competition", "setting": "CSK", "value": 71, "unit": "%"},
      {"measurement": "inhibition at 10 µM", "setting": "EPHA6; EPHA6, 10 µM, read-out: % Competition", "value": 93, "unit": "%"},
      {"measurement": "% Competition", "setting": "SYK", "value": 72, "unit": "%"},
      {"measurement": "inhibition at 10 µM", "setting": "TTK; TTK, 10 µM, read-out: % Competition", "value": 88, "unit": "%"},
      {"measurement": "inhibition at 10 µM", "setting": "ERBB4; ERBB4, 10 µM, read-out: % Competition", "value": 80, "unit": "%"}
    ]},
    {"smiles": "CC(O)CNc1cc(-c2[nH]c3cccnc3c2-c2ccc(F)cc2)ccn1", "note": "(stereo not drawn) [Compound 140]", "values": [
      {"measurement": "inhibition at 10 µM", "setting": "MAP4K4; read-out: % Competition", "value": "< 50", "unit": "%"},
      {"measurement": "inhibition at 10 µM", "setting": "MRCKB; read-out: % Competition", "value": "< 50", "unit": "%"},
      {"measurement": "inhibition at 10 µM", "setting": "YANK3; read-out: % Competition", "value": "< 50", "unit": "%"},
      {"measurement": "inhibition at 10 µM", "setting": "MEK6; read-out: % Competition", "value": "< 50", "unit": "%"},
      {"measurement": "% Competition", "setting": "EGFR(G719S)", "value": 70, "unit": "%"},
      {"measurement": "% Competition", "setting": "CSK", "value": "<50", "unit": "%"},
      {"measurement": "inhibition at 10 µM", "setting": "EPHA6; read-out: % Competition", "value": "< 50", "unit": "%"},
      {"measurement": "% Competition", "setting": "SYK", "value": "<50", "unit": "%"},
      {"measurement": "inhibition at 10 µM", "setting": "TTK; read-out: % Competition", "value": 90, "unit": "%"},
      {"measurement": "inhibition at 10 µM", "setting": "ERBB4; read-out: % Competition", "value": "< 50", "unit": "%"}
    ]},
    {"smiles": "Fc1ccc(-c2c(-c3ccncc3)[nH]c3nccnc23)cc1", "note": "[RO1155697-000-005]", "values": [
      {"measurement": "inhibition at 10 µM", "setting": "MAP4K4; MAP4K4, compound concentration 10 uM, read-out: Percent Competition", "value": 84, "unit": "%"},
      {"measurement": "inhibition at 10 µM", "setting": "MRCKB; MRCKB, compound concentration 10 uM, read-out: Percent Competition", "value": 98, "unit": "%"},
      {"measurement": "inhibition at 10 µM", "setting": "YANK3; YANK3, compound concentration 10 uM, read-out: Percent Competition", "value": 67, "unit": "%"},
      {"measurement": "inhibition at 10 µM", "setting": "MEK6; MEK6, compound concentration 10 uM, read-out: Percent Competition", "value": 66, "unit": "%"},
      {"measurement": "Percent Competition", "setting": "EGFR(G719S); compound concentration 10 uM", "value": 96, "unit": "%"},
      {"measurement": "Percent Competition", "setting": "CSK; compound concentration 10 uM", "value": 71, "unit": "%"},
      {"measurement": "inhibition at 10 µM", "setting": "EPHA6; EPHA6, compound concentration 10 uM, read-out: Percent Competition", "value": 93, "unit": "%"},
      {"measurement": "Percent Competition", "setting": "SYK; compound concentration 10 uM", "value": 72, "unit": "%"},
      {"measurement": "inhibition at 10 µM", "setting": "TTK; TTK, compound concentration 10 uM, read-out: Percent Competition", "value": 88, "unit": "%"},
      {"measurement": "inhibition at 10 µM", "setting": "ERBB4; ERBB4, compound concentration 10 uM, read-out: Percent Competition", "value": 80, "unit": "%"}
    ]}
  ]
}
